Assay results published in PMC12392461, “Beyond Estrogenicity: A Comparative Assessment of Bisphenol A and Its Alternatives in In Vitro Assays Questions Safety of Replacements” (Environmental Science & Technology, 2025).
Read-outs that look alike come from different tables or passages of the source.

Tests used:
Estrogen Receptor ERα = target: T1, Estrogen Receptor ERα (Homo sapiens, UniProt P03372); assay: cell-based; settings: for EC10, linear / logEC10 / EC10, linear transformed: Bioassay ERα, dosing range all; for EC10, linear: linear model fit; for logEC10: log-logistic model fit; for ERα activation: at noncytotoxic concentrations; for EC10, ERα (M): 10% of maximum effect of E2; for SR-ScoreERα: SR-Score, sigma k=1, x=5; for Efficacy % / EC10 / REPBPA: This Study; for EC10: ERα; for REPBPA: relative estrogenic potency vs BPA; for Specificity ratio (SRbaseline) SRERα: against baseline cytotoxicity; for Specificity ratio (SRcytotoxicity) SRERα: against experimental cytotoxicity; for EC10, ERα: effect; for log(1/EC10) ERα: input of the ToxPi score, values up to 1.00; for Relative effect potency REPERα: relative to BPA; for REPBPA,ERα (relative effect potency in relation to BPA): EC10,BPA/EC10,BPx
T1 sequence (P03372 311-547 limits assumed): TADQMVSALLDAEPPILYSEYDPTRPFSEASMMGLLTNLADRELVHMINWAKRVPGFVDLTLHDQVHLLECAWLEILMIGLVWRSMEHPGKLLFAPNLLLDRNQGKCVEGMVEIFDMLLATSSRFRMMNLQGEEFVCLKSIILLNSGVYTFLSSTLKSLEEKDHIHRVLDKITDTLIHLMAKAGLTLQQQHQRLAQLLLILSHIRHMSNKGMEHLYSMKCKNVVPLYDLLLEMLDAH
Summary of the method: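 ERα-UAS-bla GripTite and PPARγ-UAS-bla reporter cells were seeded in assay medium with 2% charcoal-stripped FBS and held 24 h at 37 °C before dosing. Viability came from IncuCyte confluency before and after exposure. EC10 used only concentrations below IC10; Emax% is the log-logistic curve maximum relative to the reference chemical.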

[1] = tested on: HEK293H, HEK293T, H4IIe, MCF7 and SH-SY5Y cells; settings: for cytotoxicity,median REPBPA,IC10: median IC10 relative to BPA; for IC10,Median (M): median cytotoxicity of all cell lines; for IC10, median: median cytotoxicity over all cell lines
Procedure: Cell culture conditions and bioassay protocols including response detection are provided in Text S2.1–2.4 and Table S3. − Cell viability was determined from cell confluency using an IncuCyte S3 Live-Cell Analysis System (Sartorius AG, Essen, Germany) before and after exposure, except for SH-SY5Y cells (live–dead staining with Nuclear Green LcS1 and propidium iodide, Abcam, UK). For metabolic activation experiments, cell viability was assessed using the ToxBLAzer DualScreen Kit (Thermo Fisher Scientific) to capture the remaining toxicity in ERα-UAS-bla GripTite after treatment with the aCYP catalyst (details in Text S2.4).
For ARE, the concentration that triggered an induction ratio of 1.5 (ECIR1.5) was used as the benchmark value, as detailed in Text S2.5. IC10 values also served as a threshold for data analysis in all assays; only concentrations below IC10 were considered when deriving EC10 or ECIR1.5.
TR indicates whether the cytotoxicity is triggered by specific toxicity mechanisms (TR ≥ 10) or not (0.1< TR< 10). 3 TR=IC10,baseline/IC10 We measured the cytotoxicity of BPA and its alternatives in HEK293H (PPARγ), HEK293T (ERα), H4IIe (AhR CALUX), MCF7 (ARE/MMP), and differentiated SH-SY5Y cells (Table S6). […]
medium, supplemented with 2% B-27 Supplement and 2 mM GlutaMAX Supplement. SH - SY5Y cells were differentiated with 10 µM all-trans retinoic acid prior to the assay.
S2.2: Cell Seeding and Incubation. For all bioassays, cell suspensions in the respective assay medium were dispensed into each well of 384-well plates using a MultiFlo Dispenser (Biotek, (now Agilent), Winooski, VT, U.S.). After seeding, the plates were incubated at 37° C and 5% CO₂ for […]. The final cell densities and plate types were as follows: Black poly-D-lysine […]
6500 cells/well, ERα: 5000 cells/well. White 384-well plates with a clear bottom (Product No.
NYC, U.S.) for AhR: 3250 cells/well. Black Collagen I coated plates were used (Product No.
S2.3: Chemical Dosing and Assay Analysis Procedures. The dosing procedure and high-throughput assay workflow have been described in detail before. 9 The dosing concentrations […]
Stock solutions were then either added directly to the respective cell culture medium or evaporated under nitrogen, followed by replenishment with fresh medium. The final solvent content in each well was kept below 1% for methanol, 0% for acetonitrile.
Dosing plates were prepared as 11 -step serial dilutions using a Hamilton Microlab Star robotic system (Hamilton, Bonaduz, Switzerland), and chemicals were dosed in duplicates by transferring 10 μL twice from the dosing plates to the cell plates . After quantifying cell confluency as described in S2. 4., the exposed cells were incubated at 37° C and 5% CO₂ for an additional 24 h. All chemicals were tested in all assays with at least three independent […]
S2.4: Cell Viability Measurement s and bioanalytical protocols . The confluency as a measure of cell viability was determined with an IncuCyte S3 Live -Cell Analysis System (Sartorius AG, Essen, Germany). With this method the confluency of cells in a microscopy image are normalized to control wells without cells and compared before and after 24 hours of exposure.
This method has been described previously 13. Cell viability of SH-SY5Y cells was measured […]
propidium iodide (PI, Abcam, Cambridge, U.K.).14 Nuclear Green LCS1 is a membrane-permeable dye that stains the nuclei of all cells, whereas PI only enters cells with compromised membrane integrity (non-viable cells). After staining, live cells show green nuclei without red fluorescence, while dead cells display both green and red nuclear fluorescence due to PI […]
intercalation. Cell viability was calculated as the proportion of green-only nuclei relative to the […]
For experiments with the preceding aCYP activation, ERα cell viability was additionally calculated from the readout of the ToxBLAzer reagent. The ToxBLAzer assay was conducted following the manufacturer's instructions (Thermo Fisher, Waltham, MA, U.S.).13 Fluorescence

[2] = 15 min
[3] = read-out: Emax%ERα, maximum efficacy relative to E2

SMILES: CC(C)(c1ccc(OCC2CO2)cc1)c1ccc(OCC2CO2)cc1 (centres unmarked) [BADGE, Bisphenol A diglycidyl ether]
- EC10, linear (Estrogen Receptor ERα): no effect
- logEC10 (Estrogen Receptor ERα): no effect
- ERα activation (Estrogen Receptor ERα): did not activate ERα at noncytotoxic concentrations
- cytotoxicity,median REPBPA,IC10 [1]: 1.82
- IC10,Median (M) [1]: 3.85 × 10^–5 M
- IC10, median [1]: 38.5 µM
- % Loss [2]: -5%
- Cparent-Ratio Mean [2]: 1.05
- Cparent-Ratio Rep.1 [2]: 1.07
- Cparent-Ratio Rep.1 % [2]: 107.02%
- Cparent-Ratio Rep.2 [2]: 1.03
- Cparent-Ratio Rep.2 % [2]: 103.48%

SMILES: CC(C)c1cc(C(C)(C)c2ccc(O)c(C(C)C)c2)ccc1O [BPG, 2,2-Bis(4-hydroxy-3-isopropylphenyl)propane]
- EC10, ERα (M) (Estrogen Receptor ERα): 9.02 × 10^–7 M
- EC10, linear transformed (Estrogen Receptor ERα; in M): 9.02E-07
- EC10, linear (Estrogen Receptor ERα; in M): 9.31E-07
- logEC10 (Estrogen Receptor ERα): -6.04
- SR-ScoreERα (Estrogen Receptor ERα): 0.94
- Efficacy % (Estrogen Receptor ERα): 19.01%
- EC10 (Estrogen Receptor ERα; in M): 9.02E-07
- REPBPA (Estrogen Receptor ERα): 4.11E-01
- Specificity ratio (SRbaseline) SRERα (Estrogen Receptor ERα): 1.60
- Specificity ratio (SRcytotoxicity) SRERα (Estrogen Receptor ERα): 7.71
- EC10, ERα (Estrogen Receptor ERα): 0.902 µM
- log(1/EC10) ERα (Estrogen Receptor ERα): 0.77
- Emax (Estrogen Receptor ERα; [3]): 19%
- Relative effect potency REPERα (Estrogen Receptor ERα): 0.41
- cytotoxicity,median REPBPA,IC10 [1]: 8.93
- IC10,Median (M) [1]: 7.84 × 10^–6 M
- IC10, median [1]: 7.84 µM

SMILES: CC1(C)[C@H](O)C(C)(C)[C@H]1O [t-TMCD, trans-2,2,4,4-Tetramethyl-1,3-cyclobutanediol]
- EC10, ERα (M) (Estrogen Receptor ERα): 3.03 × 10^–3 M
- REPBPA,ERα (relative effect potency in relation to BPA) (Estrogen Receptor ERα): 1.2 × 10^–4
- SR-ScoreERα (Estrogen Receptor ERα): 0.00922
- Efficacy % (Estrogen Receptor ERα): <20%
- EC10 (Estrogen Receptor ERα; in M): 3.03E-03
- REPBPA (Estrogen Receptor ERα): 1.22E-04
- Specificity ratio (SRbaseline) SRERα (Estrogen Receptor ERα): 0.32
- EC10, ERα (Estrogen Receptor ERα): 3030 µM
- log(1/EC10) ERα (Estrogen Receptor ERα): 0.32
- Relative effect potency REPERα (Estrogen Receptor ERα): 0.000122
- cytotoxicity,median REPBPA,IC10 [1]: 0.00783
- IC10,Median (M) [1]: 8.94 × 10^–3 M
- IC10, median [1]: 8940 µM

SMILES: CC(C)Oc1ccc(S(=O)(=O)c2ccc(O)cc2)cc1 [D8, 4-((4-Isopropoxyphenyl)sulfonyl)phenol]
- EC10, ERα (M) (Estrogen Receptor ERα): 1.12 × 10^–5 M
- EC10, linear transformed (Estrogen Receptor ERα; in M): 1.21E-05
- EC10, linear (Estrogen Receptor ERα; in M): 1.41E-05
- logEC10 (Estrogen Receptor ERα): -4.95
- REPBPA,ERα (relative effect potency in relation to BPA) (Estrogen Receptor ERα): 0.033
- SR-ScoreERα (Estrogen Receptor ERα): 1.00
- Efficacy % (Estrogen Receptor ERα): 18.50%
- EC10 (Estrogen Receptor ERα; in M): 1.12E-05
- REPBPA (Estrogen Receptor ERα): 3.29E-02
- Specificity ratio (SRbaseline) SRERα (Estrogen Receptor ERα): 5.88
- Specificity ratio (SRcytotoxicity) SRERα (Estrogen Receptor ERα): 16.41
- EC10, ERα (Estrogen Receptor ERα): 11.2 µM
- log(1/EC10) ERα (Estrogen Receptor ERα): 0.63
- Emax (Estrogen Receptor ERα; read-out: Emax%ERα): 18%
- Relative effect potency REPERα (Estrogen Receptor ERα): 0.0329
- cytotoxicity,median REPBPA,IC10 [1]: 0.21

SMILES: CC(C)(c1cc(Cl)c(O)c(Cl)c1)c1cc(Cl)c(O)c(Cl)c1 [TCBPA, 2,2',6,6'-Tetrachlorobisphenol A]
- cytotoxicity,median REPBPA,IC10 [1]: 0.89
- IC10,Median (M) [1]: 7.84 × 10^–5 M
- IC10, median [1]: 78.4 µM

SMILES: CC(C)(c1ccc(O)c(-c2ccccc2)c1)c1ccc(O)c(-c2ccccc2)c1 [BPPH, 2,2-Bis(2-hydroxy-5-biphenylyl)propane]
- EC10, linear (Estrogen Receptor ERα): no effect
- logEC10 (Estrogen Receptor ERα): no effect
- ERα activation (Estrogen Receptor ERα): did not activate ERα at noncytotoxic concentrations
- Emax (Estrogen Receptor ERα; [3]): 0%
- cytotoxicity,median REPBPA,IC10 [1]: 8.72
- IC10,Median (M) [1]: 8.02 × 10^–6 M
- IC10, median [1]: 8.02 µM
